How the values were obtained:
[1] = test system: membrane bound VRR (competitor Ac-VSR); assay: Competitive inhibition of drug-VRR cantilever response by Ac-VSR in solution; assay type: binding; details: for IC50: Van 50 μM or Ori 0.1 μM against VRR cantilever, fit of equation (1), read-out: IC50 (concentration of antagonist Ac-VSR giving 50% inhibition of drug-receptor interactions at the surface); for Ac-VSR concentration required to inhibit the mechanical response: Van 50 μM, Ori 0.1 μM against VRR
Procedure: In the first set of experiments, we assessed whether the 2-D boundary layer could mediate more efficient complex aggregation of antibiotics and thus lead to enhanced signal transduction compared to a 3-D solution. To achieve this, diacetyl vancomycin susceptible receptor (or Ac-VSR)[14] was added to the solution containing Van or Ori in order to act as a competitor against membrane bound VRR. […] The concentrations of Van and Ori in solution were kept constant at 50 μM and 0.1 μM respectively. These particular concentrations were chosen because (1) they give rise to relatively large mechanical bending signals, (2) they fall within the linear portions of the Langmuir adsorption isotherms, and (3) they require relatively low levels of Ac-VSR to inhibit the mechanical response at the surface. We therefore reasoned that if the interaction between a drug and Ac-VSR is independent of any surface effects then the amount of Ac-VSR which inhibits the mechanical response at a surface is expected to be the same for both Van and Ori. The concentration of antagonist (Ac-VSR) that gives rise to 50% inhibition (IC50) of drug-receptor interactions at the surface was used as measure of membrane effects on the association kinetics and mechanical response. […] To calculate the IC50, we analyzed the data using equation (1), whose detailed derivation has been reported previously.
Here σeq is the equilibrium mechanical stress, σligand1 is the mechanical stress generated by ligand1 in the absence of a competing ligand2, σligand2 is the corresponding minimum stress generated by ligand1 in the presence of a large excess of the concentration of competing ligand2. […] The IC50 for Ori is 3-fold larger than that of Van.

[2] = test system: vancomycin susceptible E. faecalis (VSE); details: absence of polysorbate-80; ref. 9 (Van, CE, Ori), ref. 10 (Rist), supplementary references; cited from earlier work
[3] = test system: methicillin-resistant Staphylococcus aureus (MRSA); details: absence of polysorbate-80; supplementary references; cited from earlier work
[4] = target: vancomycin-susceptible receptor (VSR); assay: Surface plasmon resonance (SPR) binding to VSR; details: T100 BIAcore, fit of equation (2), read-out: Ksurf SPR
Procedure: The SPR sensor chip functionalization procedure is summarized (see methods & materials Supplementary Information) while the measurement protocol has been described previously. In brief we used a T100 BIAcore SPR instrument in which a series of binding analyses for Van was performed. […] The corresponding SPR response signals featured an S-shaped curve, with a steep rise, then a plateau when Van concentration was increased beyond 50 μM (Fig. 7e,f). The resulting SPR differential response signals in sodium phosphate buffer solution for 0.1 μM, 0.5 μM, 2 μM, 8 μM and 128 μM were then computed using equation (2) to calculate the surface thermodynamic equilibrium dissociation constant, Ksurf of drug-target interactions.
Surface plasmon resonance (SPR) sensor chip functionalization procedure. We applied the same cantilever functionalization procedure to the SPR sensor chip functionalization. […]
The differential stress measurements obtained from cantilever chips are typically associated with multiple parameters including number of repeated measurements, concentration and the number of cantilevers where each array has eight individual cantilevers. The statistical analysis was found to be essential for replacing a vast quantity of data with numbers such as the averages and standard deviations. […]

[5] = target: vancomycin-resistant receptor (VRR); details: ref. 3 (Van), ref. 5 (Rist), ref. 4 (CE), supplementary references, read-out: Ksurf SPR; cited from earlier work
[6] = test system: Staphylococcus aureus, enterococcus faecalis and enterococcus faecium; parameters: method as in PMID 19369269; details: cited from earlier work

Row | SMILES | IC50 for Ori relative to Van ([1]; Ac-VSR competition against VRR) | IC50 [1] | Ac-VSR concentration required to inhibit the mechanical response [1] | MIC VSE [2] | MIC MRSA [3] | Kd [4] | Kd [5] | time–kill kinetics [6]
1 | CN[C@H](CC(C)C)C(=O)N[C@H]1C(=O)N[C@@H](CC(N)=O)C(=O)N[C@H]2C(=O)N[C@H]3C(=O)N[C@H](C(=O)N[C@H](C(=O)O)c4cc(O)cc(O)c4-c4cc3ccc4O)[C@H](O[C@H]3C[C@](C)(N)[C@@H](O)[C@H](C)O3)c3ccc(c(Cl)c3)Oc3cc2cc(c3O[C@@H]2O[C@H](CO)[C@@H](O)[C@H](O)[C@H]2O[C@H]2C[C@](C)(NCc3ccc(-c4ccc(Cl)cc4)cc3)[C@@H](O)[C@H](C)O2)Oc2ccc(cc2Cl)[C@H]1O [Ori, oritavancin] | 3 fold | 50.7 ± 2.1 µM | more than 500 μM | 0.25 to 2 mg/L | 0.13 to 1.01 mg/L |  |  | 
2 | CN[C@H](CC(C)C)C(=O)N[C@H]1C(=O)N[C@@H](CC(N)=O)C(=O)N[C@H]2C(=O)N[C@H]3C(=O)N[C@H](C(=O)N[C@H](C(=O)O)c4cc(O)cc(O)c4-c4cc3ccc4O)[C@H](O)c3ccc(c(Cl)c3)Oc3cc2cc(c3O[C@@H]2O[C@H](CO)[C@@H](O)[C@H](O)[C@H]2O[C@H]2C[C@](C)(N)[C@H](O)[C@H](C)O2)Oc2ccc(cc2Cl)[C@H]1O [Van, vancomycin] |  | 15.4 ± 0.2 µM | 500 µM | 0.5 to 4 mg/L | 0.5 to 4 mg/L | 1100 ± 400 nM | 526 µM | 6 to 24 h

From PMC5290737, “Surface mediated cooperative interactions of drugs enhance mechanical forces for antibiotic action” (Scientific Reports, 2017)
